Measured values published in patent publication US12390472B2 (SUZHOU SINOVENT PHARMACEUTICALS CO., LTD., priority 2018, dated 2025).
Read-outs that look alike come from different tables or passages of the source.

Tests used:
WSU-DLCL2 = experiment: Methylated lysine of histone-H3 (H3K27Me3) detection by ELISA, WSU-DLCL2 cells; format: cell-based; details: WSU-DLCL2, 7 days treatment, H3K27Me3 normalized to total histone-3, read-out: IC50 of cell methylation, WSU-DLCL2
Procedure: (§1) The operations for adherent cells and suspension cells cultured in 96-well plates were slightly different after they had been treated with compound (4-fold dilution 20 uM-0.009 nM, 3 duplicate wells) for 7 days, and the operations are summarized as follows: For adherent cells, after discarding the medium, 75 uL of 1-fold hypotonic lysis buffer (10 mM Tris-HCl, pH 7.5, containing halt protease inhibitor and PMSF with a final concentration of 1 mM) was added; the plate was frozen at −80° C. for at least 1 h or overnight; once the plate was taken away from the −80° C. environment, 120 uL (to a final volume of about 195 uL) of 1-fold hypotonic lysis buffer (containing protease inhibitor) was added, and the plate was thawed at room temperature and shaken for 2 min for mixing; and 8 uL (to a final volume of about 203 uL) of 2.5 M NaCl was added to each well to a final NaCl concentration of 100 mM and then the plate was shaken for an additional 2 min for mixing.
(§2) For suspension cells (final volume of medium was 100 uL/well), 25 uL of 5-fold hypotonic lysis buffer (50 mM Tris-HCl, pH 7.5, containing halt protease inhibitor and PMSF with a final concentration of 1 mM) was added, and the plate was frozen at −80° C. for at least 1 h or overnight. Once the plate was taken away from the −80° C. environment, 20 uL of 0.625 M NaCl was added to each well to a final NaCl concentration of about 100 mM, and the mixture was mixed well.
(§3) 75 uL or 100 uL of sample (with duplicate wells provided) was added to two 96-well ELISA plates (ThermoFisher Scientific; Immulon 4HBX 3885) and the plates were coated with total protein lysate and incubated overnight at 4° C. 50 uL of lysate was retained for protein quantitation if necessary. The sealing of the plates must be ensured. The plates were washed twice with 300 uL of 1×PBST (PBS containing 0.05% Tween 20) per well. Each well was blocked with 300 uL of dilution (PBS+2% BSA+0.05% Tween 20), incubated for 2 h at room temperature, and washed twice with 1×PBST. Primary antibodies were diluted with a dilution solution containing 1% BSA+0.05% Tween 20. 75-100 uL of anti-H3K27Me3 antibody (CST; 9733; 50% glycerol stock, 1:1,000) or anti-total histone-3 antibody (Abcam; ab1791; 50% glycerol stock, 1:10,000) was added to each well. The plates were incubated for 90 min at room temperature or incubated overnight at 4° C. The plates were washed three times with 1×PBST. 75-100 uL of anti-Rb-IgG-HRP secondary antibody (Cell Signaling Technology; 7074) was added per well, 1:2000 diluted secondary antibody for anti-H3K 27Me3 plate and 1:6000 diluted secondary antibody for anti-histone total histone-3 plate. The plates were incubated at room temperature for 90 min. The plate assayed with anti-histone-3 antibody was used to normalize the data for the corresponding plate assayed with anti-H3K 27me3. The plates must be washed at least three times with 1×PBST after primary or secondary antibody incubation. The plates were assayed by adding 75-100 uL of 3,3′,5,5′-tetramethylbenzidine substrate (CST or ThermoFisher Scientific; TMBS) per well and incubated away from light for 30 min at 37° C. The reaction was terminated by adding 100 uL of 0.5 M H2SO4 per well. The absorbance was read at 450 nm. Curve fitting was performed using Graph Pad program.

Pfeiffer = experiment: Methylated lysine of histone-H3 (H3K27Me3) detection by ELISA, Pfeiffer cells; format: cell-based, human; details: 7 days treatment, H3K27Me3 normalized to total histone-3, read-out: IC50 of cell methylation, Pfeiffer
Procedure: as §1, §2, §3

EZH2 enzyme complex = EZH2 enzyme complex (Homo sapiens (Human), UniProt Q15910); experiment: Test on EZH2 inhibitory activity (TR-FRET); format: biochemical; details: EZH2 enzyme complex 25 ng/uL, histone H3 peptide 4 uM, SAM 2 uM, 300 min; read-out: IC50 of EZH2 inhibition
EZH2 enzyme complex, sequence (Q15910 whole entry): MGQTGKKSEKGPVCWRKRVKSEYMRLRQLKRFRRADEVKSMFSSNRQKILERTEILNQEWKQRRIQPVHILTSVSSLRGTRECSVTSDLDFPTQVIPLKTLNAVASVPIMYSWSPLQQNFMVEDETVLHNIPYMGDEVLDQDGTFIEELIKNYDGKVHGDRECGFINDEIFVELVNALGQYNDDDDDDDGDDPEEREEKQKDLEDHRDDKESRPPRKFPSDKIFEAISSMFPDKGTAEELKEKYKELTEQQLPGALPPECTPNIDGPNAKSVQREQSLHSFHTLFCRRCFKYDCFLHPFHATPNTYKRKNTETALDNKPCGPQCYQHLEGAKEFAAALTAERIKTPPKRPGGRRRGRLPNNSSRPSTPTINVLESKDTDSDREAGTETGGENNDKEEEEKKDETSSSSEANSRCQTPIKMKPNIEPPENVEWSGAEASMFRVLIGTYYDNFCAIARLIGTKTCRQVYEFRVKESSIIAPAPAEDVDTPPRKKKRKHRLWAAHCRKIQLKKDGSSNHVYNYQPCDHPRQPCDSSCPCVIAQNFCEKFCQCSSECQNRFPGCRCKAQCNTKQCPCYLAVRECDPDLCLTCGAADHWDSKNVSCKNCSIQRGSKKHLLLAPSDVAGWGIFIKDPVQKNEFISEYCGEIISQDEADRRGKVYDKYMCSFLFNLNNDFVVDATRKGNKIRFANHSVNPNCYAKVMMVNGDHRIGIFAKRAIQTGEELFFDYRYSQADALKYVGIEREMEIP
EZH2 enzyme complex, sequence (O75530 whole entry partner): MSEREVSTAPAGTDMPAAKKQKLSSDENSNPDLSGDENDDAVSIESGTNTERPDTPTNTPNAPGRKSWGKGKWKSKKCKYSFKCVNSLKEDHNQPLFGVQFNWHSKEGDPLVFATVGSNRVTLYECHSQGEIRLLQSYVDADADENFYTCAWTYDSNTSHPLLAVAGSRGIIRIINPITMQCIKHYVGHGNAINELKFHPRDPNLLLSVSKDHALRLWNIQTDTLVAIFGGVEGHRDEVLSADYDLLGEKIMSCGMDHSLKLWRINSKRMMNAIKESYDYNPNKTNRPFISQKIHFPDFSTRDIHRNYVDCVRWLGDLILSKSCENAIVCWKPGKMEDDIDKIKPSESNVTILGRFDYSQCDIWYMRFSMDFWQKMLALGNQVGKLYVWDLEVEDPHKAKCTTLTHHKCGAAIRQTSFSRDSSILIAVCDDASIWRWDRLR
EZH2 enzyme complex, sequence (Q15022 whole entry partner): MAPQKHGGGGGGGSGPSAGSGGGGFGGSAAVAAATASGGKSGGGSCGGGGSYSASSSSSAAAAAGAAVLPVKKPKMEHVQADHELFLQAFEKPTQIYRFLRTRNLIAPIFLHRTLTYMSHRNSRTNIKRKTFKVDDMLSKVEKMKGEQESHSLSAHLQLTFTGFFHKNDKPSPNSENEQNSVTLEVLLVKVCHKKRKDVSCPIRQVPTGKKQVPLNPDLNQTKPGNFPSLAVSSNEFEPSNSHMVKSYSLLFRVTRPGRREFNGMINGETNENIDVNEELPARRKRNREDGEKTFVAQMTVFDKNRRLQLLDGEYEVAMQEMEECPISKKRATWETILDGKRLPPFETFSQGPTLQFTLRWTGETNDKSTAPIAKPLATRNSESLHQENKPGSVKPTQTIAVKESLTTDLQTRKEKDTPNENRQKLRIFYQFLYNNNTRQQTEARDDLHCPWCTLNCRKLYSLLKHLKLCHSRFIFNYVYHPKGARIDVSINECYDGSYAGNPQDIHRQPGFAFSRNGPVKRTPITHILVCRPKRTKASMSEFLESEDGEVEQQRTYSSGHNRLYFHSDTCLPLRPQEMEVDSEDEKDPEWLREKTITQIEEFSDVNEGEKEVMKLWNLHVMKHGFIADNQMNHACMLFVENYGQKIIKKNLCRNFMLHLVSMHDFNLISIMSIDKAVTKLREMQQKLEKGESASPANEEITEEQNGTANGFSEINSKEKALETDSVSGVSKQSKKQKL
Procedure: • EZH2 enzyme complex: 25 ng/uL • Histone H3 peptide substrate: 4 uM • SAM: 2 uM • Reaction time: 300 min Procedures • 1. Each compound disclosed herein was diluted with 1×HMT buffer and transferred to a 384-well assay plate at 3 uL per well; • 2. The EZH2 enzyme solution was prepared with 1×HMT buffer and transferred to the 384-well assay plate at 2 uL per well; • 3. The above assay plate was incubated for 30 min; • 4. A mixture solution of SAM and histone H3 peptide substrate at 2-fold concentration was prepared with 4×HMT buffer; • 5. 5 uL of the mixture solution of SAM and substrate was added to each well of the assay plate to react at room temperature, and the assay plate was sealed with plastic; • 6. After incubation for 5 h, 10 uL of TR-FRET detection buffer containing Tb-labeled antibody and dye-labeled receptor was added to each well of the assay plate; • 7. After incubation for 1 h at room temperature, the assay plate was detected; • 8.

Structure (SMILES)	IC50 (WSU-DLCL2; Homo sapiens, WSUDLCL2, 168 h) [nM]	IC50 (Pfeiffer; Homo sapiens, 168 h) [nM]	IC50 (EZH2 enzyme complex) [nM]	IC50 (WSU-DLCL2) [nM]	IC50 (Pfeiffer) [nM]
CCN(c1cc(O[C@H]2C[C@H](N3C[C@@H](C)O[C@@H](C)C3)C2)cc(C(=O)NCc2c(C)cc(C)[nH]c2=O)c1C)C1CCOC1 (stereo partly drawn) [Example 46, N-((4,6-dimethyl-2-oxo-1,2-dihydropyridin-3-yl)methyl)-5-(trans-3-(cis-2,6-dimethylmorpholinyl)cyclobutoxy)-3-(ethyl(tetrahydrofuran-3-yl)amino)-2-methylbenzamide]	50 to 500	500 to 1000	< 10		
CCN(c1cc(O[C@H]2C[C@@H](N3CCN(C(C)=O)CC3)C2)cc(C(=O)NCc2c(C)cc(C)[nH]c2=O)c1C)C1CCOCC1 [Example 25, cis-5-(3-(4-acetylpiperazin-1-yl)cyclobutoxy)-N-((4,6-dimethyl-2-oxo-1,2-dihydropyridin-3-yl)methyl)-3-(ethyl(tetrahydro-2H-pyran-4-yl)amino)-2-methylbenzamide]	< 50	< 50	10 to 100		
CCN(c1cc(O[C@H]2C[C@H](N3CCN(C)CC3)C2)cc(C(=O)NCc2c(C)cc(C)[nH]c2=O)c1C)C1CCOCC1 [Example 20, N-((4,6-dimethyl-2-oxo-1,2-dihydropyridin-3-yl)methyl)-3-(ethyl(tetrahydro-2H-pyran-4-yl)amino)-2-methyl-5-(trans-3-(4-methylpiperazin-1-yl)cyclobutoxy)benzamide]	50 to 500	< 50	10 to 100		
CCN1CCN([C@H]2C[C@H](Oc3cc(C(=O)NCc4c(C)cc(C)[nH]c4=O)c(C)c(N(CC)C4CCOCC4)c3)C2)CC1 [Example 24, N-((4,6-dimethyl-2-oxo-1,2-dihydropyridin-3-yl)methyl)-3-(ethyl(tetrahydro-2H-pyran-4-yl)amino)-5-(trans-3-(4-ethylpiperazin-1-yl)cyclobutoxy)-2-methylbenzamide]	50 to 500	< 50	< 10		
CCN(c1cc(O[C@H]2C[C@@H](N3CCN(C(C)C)CC3)C2)cc(C(=O)NCc2c(C)cc(C)[nH]c2=O)c1C)C1CCOCC1 [Example 21, N-((4,6-dimethyl-2-oxo-1,2-dihydropyridin-3-yl)methyl)-3-(ethyl(tetrahydro-2H-pyran-4-yl)amino)-5-(cis-3-(4-isopropylpiperazin-1-yl)cyclobutoxy)-2-methylbenzamide]	50 to 500	< 50	10 to 100		
CCN(c1cc(O[C@H]2C[C@H](CN3CCOCC3)C2)cc(C(=O)NCc2c(C)cc(C)[nH]c2=O)c1Cl)C1CCOCC1 [Example 29, 2-chloro-N-((4,6-dimethyl-2-oxo-1,2-dihydropyridin-3-yl)methyl)-3-(ethyl(tetrahydro-2H-pyran-4-yl)amino)-5-(trans-3-(morpholinylmethyl)cyclobutoxy)benzamide]	50 to 500	< 50	10 to 100		
CCN(c1cc(O[C@H]2C[C@@H](N3CCN(S(C)(=O)=O)CC3)C2)cc(C(=O)NCc2c(C)cc(C)[nH]c2=O)c1C)C1CCOCC1 [Example 27, N-((4,6-dimethyl-2-oxo-1,2-dihydropyridin-3-yl)methyl)-3-(ethyl(tetrahydro-2H-pyran-4-yl)amino)-2-methyl-5-(cis-3-(4-(methylsulfonyl)piperazin-1-yl)cyclobutoxy)benzamide]	< 50	< 50	< 10		
CCN(c1cc(O[C@H]2C[C@H](CN3C[C@@H](C)O[C@@H](C)C3)C2)cc(C(=O)NCc2c(C)cc(C)[nH]c2=O)c1Cl)C1CCOCC1 [Example 53, 2-chloro-N-((4,6-dimethyl-2-oxo-1,2-dihydropyridin-3-yl)methyl)-5-(trans-3-((cis-2,6-dimethylmorpholinyl)methyl)cyclobutoxy)-3-(ethyl(tetrahydro-2H-pyran-4-yl)amino)benzamide]			10 to 100	50 to 500	500 to 1000
CCN(c1cc(O[C@H]2C[C@H](CN3C[C@@H](C)O[C@@H](C)C3)C2)cc(C(=O)NCc2c(C)cc(C)[nH]c2=O)c1Cl)C1CCOCC1 [Example 30, 2-chloro-N-((4,6-dimethyl-2-oxo-1,2-dihydropyridin-3-yl)methyl)-5-(trans-3-((cis-2,6-dimethylmorpholinyl)methyl)cyclobutoxy)-3-(ethyl(tetrahydro-2H-pyran-4-yl)amino)benzamide]	50 to 500		10 to 100		< 50
CCN(c1cc(S(=O)(=O)C2CCC2)cc(C(=O)NCc2c(C)cc(C)[nH]c2=O)c1C)C1CCOCC1 [Example 10, 5-(cyclobutylsulfonyl)-N-((4,6-dimethyl-2-oxo-1,2-dihydropyridin-3-yl)methyl)-3-(ethyl(tetrahydro-2H-pyran-4-yl)amino)-2-methylbenzamide]	> 1000	500 to 1000	100 to 1000		
CCN(c1cc(O[C@H]2C[C@H](N3C[C@@H](C)O[C@@H](C)C3)C2)cc(C(=O)NCc2c(C)cc(C)[nH]c2=O)c1C)[C@H]1C[C@@H](C)O[C@@H](C)C1 [Example 35, N-((4,6-dimethyl-2-oxo-1,2-dihydropyridin-3-yl)methyl)-5-(trans-3-(cis-2,6-dimethylmorpholinyl)cyclobutoxy)-3-((cis-2,6-dimethyltetrahydro-2H-pyran-4-yl)(ethyl)amino)-2-methylbenzamide]	> 1000	50 to 500	10 to 100		
CCN(c1cc(OC2CC(CN3CCOCC3)C2)cc(C(=O)NCc2c(C)cc(C)[nH]c2=O)c1C)C1CCOCC1 (stereo not drawn) [Example 16, N-((4,6-dimethyl-2-oxo-1,2-dihydropyridin-3-yl)methyl)-3-(ethyl(tetrahydro-2H-pyran-4-yl)amino)-2-methyl-5-(3-(morpholinylmethyl)cyclobutoxy)benzamide]	50 to 500	< 50	10 to 100		
CCN(c1cc(O[C@H]2C[C@H](N3C[C@@H](C)O[C@@H](C)C3)C2)cc(C(=O)NCc2c(C)cc(C)[nH]c2=O)c1C)[C@@H]1C[C@@H](C)O[C@@H](C)C1 [Example 39, N-((4,6-dimethyl-2-oxo-1,2-dihydropyridin-3-yl)methyl)-5-(trans-3-(cis-2,6-dimethylmorpholinyl)cyclobutoxy)-3-((trans-2,6-dimethyltetrahydro-2H-pyran-4-yl)(ethyl)amino)-2-methylbenzamide]	> 1000	500 to 1000	100 to 1000		
CCN(c1cc(C2CC2CN2CCNCC2)cc(C(=O)NCc2c(C)cc(C)[nH]c2=O)c1C)C1CCOCC1 (stereo not drawn) [Example 73, N-((4,6-dimethyl-2-oxo-1,2-dihydropyridin-3-yl)methyl)-3-(ethyl(tetrahydro-2H-pyran-4-yl)amino)-2-methyl-5-(2-(piperazin-1-ylmethyl)cyclopropyl)benzamide]	50 to 500	50 to 500	10 to 100		
CCN(c1cc(SC2CCC2)cc(C(=O)NCc2c(C)cc(C)[nH]c2=O)c1C)C1CCOCC1 [Example 8, 5-(cyclobutylthio)-N-((4,6-dimethyl-2-oxo-1,2-dihydropyridin-3-yl)methyl)-3-(ethyl(tetrahydro-2H-pyran-4-yl)amino)-2-methylbenzamide]	> 1000	50 to 500	10 to 100		
CCN(c1cc(C2CC2CO)cc(C(=O)NCc2c(C)cc(C)[nH]c2=O)c1C)C1CCOCC1 (stereo not drawn) [Example 71, N-((4,6-dimethyl-2-oxo-1,2-dihydropyridin-3-yl)methyl)-3-(ethyl(tetrahydro-2H-pyran-4-yl)amino)-5-(2-(hydroxymethyl)cyclopropyl)-2-methylbenzamide]	50 to 500	< 50	10 to 100		
